The values that follow come from patent US7696249B2, “Diphenyl urea derivatives” (ARPIDA AG, priority 2005, dated 2010).

≈ marks a conversion by molar mass, not a printed value. Where two headings read alike, the source gives them in different places.

Holding throughout (assay type): cell-based
One experiment concerns P. acnes 6390. In words: MIC, anaerobic bacteria, microbroth dilutions in Wilkins Chalgren Broth. Conditions: Cutibacterium acnes, pathogens for skin infections, read-out: Minimum Inhibitory Concentration (MIC) P. acnes 6390. As to the method:
(§1) Antimicrobial susceptibility testing was performed in accordance with the Clinical and Laboratory Standards Institute (CLSI). Streptococci (S. pneumoniae, S. pyogenes, S. viridans) were tested following the CLSI methodology with the exception that Todd Hewitt Broth without blood was used. Anaerobic bacteria (P. acnes, B. distasonis) were tested following CLSI (formerly NCCLS) guidelines except for using microbroth dilutions in Wilkins Chalgren Broth. National Committee for Clinical Laboratory Standards (NCCLS). Methods for Anti-microbial Susceptibility Testing of Anaerobic Bacteria; Approved Standard—Sixth Edition (2004). NCCLS document M11-A6.
A general note: Dilution methods test growth across graded concentrations, often in twofold steps.

For the next experiment, the system named is B. distasonis 5770. Described as above. Particulars: Parabacteroides distasonis, pathogens for gastro-intestinal infections, read-out: Minimum Inhibitory Concentration (MIC) B. distasonis 5770. As to the method: as §1
The next experiment has as its system S. pneumoniae 1/1. Nature of the experiment: MIC, CLSI methodology with Todd Hewitt Broth without blood. Conditions: Streptococcus pneumoniae, pathogens for ocular infections, read-out: Minimum Inhibitory Concentration (MIC) S. pneumoniae 1/1. As to the method:
as §1, with “(CLSI). Clinical and Laboratory Standards Institute (CLSI; formerly NCCLS): Methods for Dilution Antimicrobial Susceptibility Tests for Bacteria That Grow Aerobically; Approved Standard—Seventh Edition (2006). Clinical and Laboratory Standards Institute document M7-A7.” for “(CLSI).”

For a further experiment, the system named is S. pyogenes GAS-1. The description is as above. Particulars: for MIC: Streptococcus pyogenes, GAS1, pathogens for ocular infections, read-out: Minimum Inhibitory Concentration (MIC) S. pyogenes GAS-1; for Minimum Inhibitory Concentration (MIC) S. pyogenes GAS-1: pathogens for skin infections. How it is done: as §1, with “(CLSI). Clinical and Laboratory Standards Institute (CLSI; formerly NCCLS): Methods for Dilution Antimicrobial Susceptibility Tests for Bacteria That Grow Aerobically; Approved Standard—Seventh Edition (2006). Clinical and Laboratory Standards Institute document M7-A7.” for “(CLSI).”

A further experiment relates to S. viridans UHC 7. The description is as above. Conditions: Streptococcus viridans, UHC7; pathogens for dental infections; read-out: Minimum Inhibitory Concentration (MIC) S. viridans UHC 7. How it is done:
as §1, with “(CLSI). Clinical and Laboratory Standards Institute (CLSI; formerly NCCLS): Methods for Dilution Antimicrobial Susceptibility Tests for Bacteria That Grow Aerobically; Approved Standard—Seventh Edition (2006). Clinical and Laboratory Standards Institute document M7-A7.” for “(CLSI).”

The test system of a further experiment is S. aureus MRSA 101. Nature of the experiment: MIC, broth dilution antimicrobial susceptibility testing (CLSI). Particulars: for MIC: Staphylococcus aureus, MRSA, pathogens for nasal colonization, read-out: Minimum Inhibitory Concentration (MIC) S. aureus MRSA 101; for Minimum Inhibitory Concentration (MIC) S. aureus MRSA 101: pathogens for ocular infections. How it is done:
(§2) Antimicrobial susceptibility testing was performed in accordance with the Clinical and Laboratory Standards Institute (CLSI).
(§3) Clinical and Laboratory Standards Institute (CLSI; formerly NCCLS): Methods for Dilution Antimicrobial Susceptibility Tests for Bacteria That Grow Aerobically; Approved Standard—Seventh Edition (2006). Clinical and Laboratory Standards Institute document M7-A7.

Another experiment relates to S. epidermidis MRSE 70. The description is as above. Conditions: for MIC: Staphylococcus epidermidis, MRSE, pathogens for nasal colonization, read-out: Minimum Inhibitory Concentration (MIC) S. epidermidis MRSE 70. How it is done:
as §2, §3

A further experiment has as its system S. aureus ATCC 25923. The description is as above. Particulars: Staphylococcus aureus, ATCC25923. How it is done:
as §2, §3

The subject of a further experiment is S. aureus MRSA 39. Described as above. Conditions: for MIC: Staphylococcus aureus, MRSA, pathogens for nasal colonization, read-out: Minimum Inhibitory Concentration (MIC) S. aureus MRSA 39. As to the method:
as §2, §3

The next experiment deals with E. faecalis VanB E80-8. The description is as above. Particulars: for MIC: Enterococcus faecalis, VANBE808, pathogens for skin infections, read-out: Minimum Inhibitory Concentration (MIC) E. faecalis VanB E80-8; for Minimum Inhibitory Concentration (MIC) E. faecalis VanB E80-8: pathogens for gastro-intestinal infections. As to the method:
as §2, §3

Setting [1] is: pathogens for ocular infections.
Setting [2] is: pathogens for nasal colonization, read-out: Minimum Inhibitory Concentration (MIC) S. aureus ATCC 25923.
The mark [3] stands for this setting: pathogens for ocular infections, read-out: Minimum Inhibitory Concentration (MIC) S. aureus 25923.

With `O=C(Nc1cc(F)cc(C(F)(F)F)c1)Nc1ccc(Cl)c(C(F)(F)F)c1` [Example 1, 1-(3-Fluoro-5-trifluoromethyl-phenyl)-3-(4-chloro-3-trifluoromethyl-phenyl)-urea], the MIC is at most 0.03 µg/mL in the experiment on P. acnes 6390; 0.25 µg/mL (≈ 0.624 µM) with B. distasonis 5770; 0.06 µg/mL (≈ 0.15 µM) in the experiment with S. pneumoniae 1/1; 0.125 µg/mL (≈ 0.312 µM) in the experiment on S. pyogenes GAS-1; 0.5 µg/mL (≈ 1.25 µM) in the experiment on S. viridans UHC 7; 0.125 µg/mL (≈ 0.312 µM) in the experiment on S. aureus MRSA 101. For the same molecule, the MIC in the experiment with S. epidermidis MRSE 70 came to 0.25 µg/mL (≈ 0.624 µM); in the experiment with S. aureus ATCC 25923 (setting [2]), 0.125 µg/mL (≈ 0.312 µM); with S. aureus ATCC 25923 (setting [3]), 0.125 µg/mL (≈ 0.312 µM); in the experiment on S. aureus MRSA 39 it was 0.125 µg/mL (≈ 0.312 µM); with E. faecalis VanB E80-8 it was 1 µg/mL (≈ 2.5 µM). The “Minimum Inhibitory Concentration (MIC) S. pyogenes GAS-1” value in the experiment with S. pyogenes GAS-1 is 0.125 micrograms/ml. In addition, the “Minimum Inhibitory Concentration (MIC) S. aureus MRSA 101” value with S. aureus MRSA 101 worked out at 0.125 micrograms/ml. The “Minimum Inhibitory Concentration (MIC) S. epidermidis MRSE 70” value in the experiment with S. epidermidis MRSE 70 (setting [1]) and in the experiment with S. epidermidis MRSE 70 (pathogens for skin infections) was 0.25 micrograms/ml in each case. In addition, the “Minimum Inhibitory Concentration (MIC) S. aureus MRSA 39” value in the experiment on S. aureus MRSA 39 (setting [1]) and with S. aureus MRSA 39 (pathogens for skin infections) was 0.125 micrograms/ml throughout. Also, the “Minimum Inhibitory Concentration (MIC) E. faecalis VanB E80-8” value with E. faecalis VanB E80-8 was 1 micrograms/ml.
For the molecule `Fc1cc(NC(=S)Nc2ccc(Cl)c(C(F)(F)F)c2)cc(C(F)(F)F)c1` [Example 3, 1-(3-Fluoro-5-trifluoromethyl-phenyl)-3-(4-chloro-3-trifluoromethyl-phenyl)-thiourea], the MIC was at most 0.03 µg/mL in the experiment with P. acnes 6390; 0.5 µg/mL (≈ 1.2 µM) in the experiment with B. distasonis 5770; 0.5 µg/mL (≈ 1.2 µM) in the experiment with S. pneumoniae 1/1; 0.5 µg/mL (≈ 1.2 µM) in the experiment with S. pyogenes GAS-1; 2 µg/mL (≈ 4.8 µM) in the experiment with S. viridans UHC 7; 0.25 µg/mL (≈ 0.6 µM) in the experiment on S. aureus MRSA 101. In addition, the MIC in the experiment on S. epidermidis MRSE 70 came out at 0.25 µg/mL (≈ 0.6 µM); in the experiment with S. aureus ATCC 25923 (setting [2]) it was 0.25 µg/mL (≈ 0.6 µM); in the experiment on S. aureus ATCC 25923 (setting [3]), 0.25 µg/mL (≈ 0.6 µM); in the experiment with S. aureus MRSA 39, 0.25 µg/mL (≈ 0.6 µM); in the experiment on E. faecalis VanB E80-8, 2 µg/mL (≈ 4.8 µM). Further, the “Minimum Inhibitory Concentration (MIC) S. pyogenes GAS-1” value in the experiment with S. pyogenes GAS-1 is 0.5 micrograms/ml. Also, in the experiment with S. aureus MRSA 101, the “Minimum Inhibitory Concentration (MIC) S. aureus MRSA 101” value is 0.25 micrograms/ml. The “Minimum Inhibitory Concentration (MIC) S. epidermidis MRSE 70” value in the experiment on S. epidermidis MRSE 70 (setting [1]) and with S. epidermidis MRSE 70 (pathogens for skin infections) was 0.25 micrograms/ml each time. The “Minimum Inhibitory Concentration (MIC) S. aureus MRSA 39” value in the experiment with S. aureus MRSA 39 (setting [1]) and in the experiment on S. aureus MRSA 39 (pathogens for skin infections) was 0.25 micrograms/ml each time. In the experiment on E. faecalis VanB E80-8, the “Minimum Inhibitory Concentration (MIC) E. faecalis VanB E80-8” value came to 2 micrograms/ml.
In the case of `O=C(Nc1cc(F)cc(C(F)(F)F)c1)Nc1ccc(Br)c(C(F)(F)F)c1` [Example 2, 1-(3-Fluoro-5-trifluoromethyl-phenyl)-3-(4-bromo-3-trifluoromethyl-phenyl)-urea], the MIC in the experiment with P. acnes 6390 was at most 0.03 µg/mL; with B. distasonis 5770 it was 0.25 µg/mL (≈ 0.562 µM); in the experiment with S. pneumoniae 1/1, at most 0.03 µg/mL; in the experiment with S. pyogenes GAS-1, 0.06 µg/mL (≈ 0.135 µM); with S. viridans UHC 7, 0.5 µg/mL (≈ 1.12 µM); with S. aureus MRSA 101, 0.25 µg/mL (≈ 0.562 µM). Moreover, the MIC in the experiment on S. epidermidis MRSE 70 worked out at 0.5 µg/mL (≈ 1.12 µM); in the experiment with S. aureus ATCC 25923 (setting [2]) it was 0.125 µg/mL (≈ 0.281 µM); in the experiment with S. aureus ATCC 25923 (setting [3]), 0.125 µg/mL (≈ 0.281 µM); in the experiment on S. aureus MRSA 39, 0.125 µg/mL (≈ 0.281 µM); in the experiment with E. faecalis VanB E80-8, 1 µg/mL (≈ 2.25 µM). In addition, the “Minimum Inhibitory Concentration (MIC) S. pyogenes GAS-1” value in the experiment on S. pyogenes GAS-1 turned out to be 0.06 micrograms/ml. For the same molecule, the “Minimum Inhibitory Concentration (MIC) S. aureus MRSA 101” value in the experiment on S. aureus MRSA 101 was found to be 0.25 micrograms/ml. For the same molecule, the “Minimum Inhibitory Concentration (MIC) S. epidermidis MRSE 70” value in the experiment on S. epidermidis MRSE 70 (setting [1]) and in the experiment on S. epidermidis MRSE 70 (pathogens for skin infections) was 0.5 micrograms/ml each time. The “Minimum Inhibitory Concentration (MIC) S. aureus MRSA 39” value with S. aureus MRSA 39 (setting [1]) and in the experiment with S. aureus MRSA 39 (pathogens for skin infections) was 0.125 micrograms/ml each time. The “Minimum Inhibitory Concentration (MIC) E. faecalis VanB E80-8” value in the experiment with E. faecalis VanB E80-8 is 1 micrograms/ml.
